Assay: gradient 5% acetonitrile 3 min, to 50% in 2 min, to 85% in 15 min, held 3 min, 100 µL/min
Conditions: column: Zorbax Extend-C18 2.1 x 50 mm; eluents: water / acetonitrile, 0.1% formic acid
Method in brief: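 A Zorbax Extend-C18 column (2.1 × 50 mm, 1.8 μm) run at 100 μL/min with water and acetonitrile, both containing 0.1% formic acid, separated mixtures of ~100 pure standards. The HPLC was coupled to a quadrupole time-of-flight mass spectrometer operated in positive and negative ionization mode, with dead and dwell volumes of 40 μL and 900 μL. Each retention time was taken from a computationally picked adduct peak that was then manually inspected.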

Row | Structure (SMILES) | RP-LC retention time [s]
1 | O=C(CSc1ccc(-c2ccc(-n3ccnc3)cc2)nn1)NCc1ccco1 | 554
2 | CCN1C(=O)c2cc(S(=O)(=O)NCc3cccc(C)c3)ccc2Oc2cccnc21 | 1030
3 | O=C(NC1CCCCC1)N1CCCC(c2nnnn2-c2ccccc2)C1 (stereo not drawn) | 818
4 | Cc1ccccc1CNC(=O)C1CCN(S(C)(=O)=O)c2cc(Cl)ccc2O1 (stereo not drawn) | 975
5 | O=C(c1cccc(Br)c1)N1CCN(c2cc(-c3cccs3)[nH]n2)CC1 | 837
6 | Cc1nc2cc(-c3noc(-c4ccc(C#N)cc4)n3)ccc2n(C(C)C)c1=O | 929
7 | CC(=O)N1CCc2sc(C(=O)N3CCN(c4cc(C)ccc4C)CC3)cc2C1 | 904
8 | Cc1ccc(NC(=O)N2CCC(CN3CCCC(C)C3)CC2)cc1C (stereo not drawn) | 645
9 | Cc1ccc(NC(=O)Nc2nc(C(=O)Nc3ccc4c(c3)OCO4)cs2)cc1 | 852
10 | O=C(Nc1ccc(C(=O)N2CCN(c3ccccn3)CC2)cc1)C1=CSCCO1 | 611
11 | Clc1ccc(-c2noc(CN3CCN(c4ccccn4)CC3)n2)cc1 | 679
12 | COC(=O)c1ccc(C(=O)OC)c(=O)[nH]1 | 638
13 | CC(C)c1ccc(NC(=O)Cn2ncc3c(c2=O)N(C2CC2)C(=O)CS3)cc1 | 784
14 | COCC(C)NC(=O)C(=O)Nc1ccc2c(c1)OCCO2 (stereo not drawn) | 685
15 | O=C(c1ccc(-c2cccs2)nc1)N1CCOCC1 | 678
16 | CC1=C(c2ccc(C)cc2)S(=O)(=O)N=C1N1CCCN(C(=O)c2cccs2)CC1 | 836
17 | CCOc1ccc2nc(C(=O)NC3CCCC3)cn2n1 | 822
18 | O=C(NCc1ccc(S(=O)(=O)N2CCCC2)s1)c1cccc(-c2nnc(-c3ccccc3)o2)c1 | 948
19 | Cc1ccc(C)c(C(=O)N2C[C@H](c3nc(-c4cccnc4)no3)[C@@H](C)C2)c1 | 836
20 | Cc1nc(C2CN(S(=O)(=O)c3ccccc3F)CC23CCOCC3)no1 (stereo not drawn) | 812
21 | Cc1ccc(-c2ncccc2CNS(=O)(=O)c2cc(F)ccc2C)cc1 | 738
22 | Cc1ccccc1/C=C/C1=NCCN1 | 665
23 | COc1ccc(CNc2nc3ccncc3n(C(C)C)c2=O)cc1OC | 550

Row | Structure (SMILES) | RP-LC retention time [s]
24 | Cc1cc(C)cc(C(=O)NCc2ccc3c(c2)ncn3C)c1 | 615
25 | Cc1c(C(=O)C(=O)NCc2ccc3c(c2)OCO3)c2ccccc2n1C | 820
26 | CCn1c(=O)c(N2CCN(C(=O)NCCCOC)CC2)nc2ccccc21 | 727
27 | COc1cccc2cc(C(=O)NCCn3nc(C)cc3C)oc12 | 674
28 | Cn1c(CNC(=O)C2CCc3sc(C(=O)N4CCCC4)cc3C2)nc2ccccc21 (stereo not drawn) | 602
29 | COc1ccc(CN2C(=O)CC(c3ccc(OC)c(OC)c3)CC2=O)cc1 | 879
30 | Cn1cc(C(=O)NCc2ccccc2F)c(S(=O)(=O)N2CCSCC2)n1 | 865
31 | O=C(N/N=C/c1ccc([N+](=O)[O-])o1)c1ccc(O)cc1 | 675
32 | CC(C)n1cnc(S(=O)(=O)N2CCCC(C(=O)NCc3ccc(Cl)cc3)C2)c1 (stereo not drawn) | 799
33 | CC(NC(=O)c1ccc(-c2ccsc2)nc1)c1ccc(F)cc1 (stereo not drawn) | 908
34 | CCc1noc([C@@H]2CC(F)(F)CN2C(=O)c2ccoc2)n1 | 757
35 | CCOC(=O)c1sc2nc(C)cc(C)c2c1NC(=O)CCS(=O)(=O)c1ccccc1 | 759
36 | CC1(C(=O)NCc2ccc(F)cc2)CN(S(=O)(=O)c2ccccc2)CC(=O)N1C1CCCCC1 (stereo not drawn) | 1020
37 | CCn1nc(C)c2ccnc(N3CCC(C(=O)N4CCN(c5cccc(OC)c5)CC4)CC3)c21 | 712
38 | CC(C)Cc1nnc(C(=O)Nc2cccc(C(=O)NCCc3c[nH]c4ccccc34)c2)s1 | 955
39 | COc1ccccc1-c1nnc(-c2ccc(OC)c(S(=O)(=O)N3CCOCC3)c2)o1 | 781
40 | CCCNC(=O)N1CCc2nc(-c3ccccc3)ncc2C1 | 751
41 | Cc1cc(-n2c(C)nc3ccccc3c2=O)ccc1NC(=O)Cc1ccccc1F | 798
42 | O=C(Cn1c(-c2cccs2)cc2cc(F)ccc21)NCCCN1CCOCC1 | 671
43 | CC(C)n1cnc(S(=O)(=O)N2CCC(C(=O)NCc3ccc(Cl)cc3)CC2)c1 | 749
44 | O=C(CSc1ccc(-c2cccc([N+](=O)[O-])c2)nn1)NCc1cccs1 | 766
45 | CCn1c(-c2cccc(C(=O)NC3CCCCC3)c2)nc2cccnc21 | 780
46 | Cc1nc(-c2cccnc2)nc2c1CCC(=O)N2CC1CCCO1 (stereo not drawn) | 626

Row | Structure (SMILES) | RP-LC retention time [s]
47 | COc1cc(CNS(=O)(=O)c2cccc(-c3nc(-c4ccccc4)no3)c2)cc(OC)c1OC | 1040
48 | Cc1cc(-c2nnc(-c3ccccc3)o2)c(C)n1CC(=O)Nc1cccc(F)c1 | 938
49 | COc1ccc(C)cc1NC(=O)Cn1c(N2CCOCC2)nc(C)cc1=O | 719
50 | O=C(COc1ccc(Cl)cc1)N1CC(n2cnnc2C2CC2)C1 | 675
51 | CCCNc1cc(N2CCCC(CCC(=O)N(CC)CC)C2)ncn1 (stereo not drawn) | 658
52 | CCc1ccc(-n2nnc(C(=O)N3CCC(N4CCCCC4)CC3)c2-c2ccncc2)cc1 | 634
53 | Cc1ccc(/C=N/NC(=O)c2ccccc2Oc2ccccc2)o1 | 854
54 | CCCN1C(=O)c2cc(S(=O)(=O)Nc3ccc(C)cc3F)ccc2Oc2cccnc21 | 1080
55 | COc1cc(C(=O)Nc2nc(-c3ccc4c(c3)N(C)C(=O)CO4)c(C)s2)cc(OC)c1OC | 964
56 | COc1cccc(-c2nc(-c3ccc(NS(=O)(=O)c4cccs4)cc3)no2)c1OC | 1040
57 | O=C(NCc1ccccn1)C1CCN(c2nc3ccc(-c4cncnc4)nc3s2)CC1 | 599
58 | O=C(NCCc1nc(-c2ccc3c(c2)OCO3)n[nH]1)c1ccc(F)c(Cl)c1 | 743
59 | COc1cccc(Cn2nc3ccc(S(=O)(=O)N4CCCC4)cn3c2=O)c1 | 814
60 | O=C(Nc1ccc(Cn2cncn2)cc1)c1cccs1 | 661
61 | COc1ccc(N2CCN(c3cc(SCC(=O)NCc4ccc(SC)cc4)ncn3)CC2)cc1 | 897
62 | CN(C)CCNC(=O)c1ccc(Nc2c(-c3ccccc3)nc3cnccn23)cc1 | 586
63 | Cc1cccc(C(=O)NC2CCN(c3cc(-c4cccs4)[nH]n3)C2)c1 (stereo not drawn) | 741
64 | CCn1ccc(C(=O)N2CCN(c3nc4cccnc4n(C)c3=O)CC2)n1 | 721
65 | O=c1cc(-c2ccccc2)oc2cc(O)c(O)cc12 | 750
66 | COCCNC(=O)Cn1c(=O)c2cccn2c2ccccc21 | 655
67 | Cc1cccc(NC(=O)c2cnc3c(c2)c(=O)n(C)c(=O)n3-c2ccccc2)c1 | 926
68 | Cc1cc(C)n2nc(SCC(=O)NC(C)C)nc2n1 | 613

Reference: the METLIN SMRT retention time set (Domingo-Almenara et al. 2019)
